Counter-ions that a name gives are not always drawn. Like-named read-outs stand apart in the source and are kept apart here. Where a SMILES comes first, the peptide text is derived from it. The star is where a group is joined. Cbz = O=C(OCc1ccccc1)*
Experiments:
SARS-CoV-2 = assay: microbe, parasite or virus in culture; format: cell-based; conditions: for Inhibition of SARS-CoV-2-induced cytopathic effect, result in words: Vero E6
in vitro = conditions: African green monkey
[1] = CC50, Vero E6, no virus, 3 days
[2] = Vero E6, cytopathic effect 3 days after infection, repeated experiments
[3] = Severe acute respiratory syndrome coronavirus 2, Vero C1008, 72 h, Vero E6, cytopathic effect 3 days after infection, repeated experiments, read-out: IC50 (Mean +/- SD)
[4] = Severe acute respiratory syndrome coronavirus 2, Vero C1008, Vero E6, one representative experiment with two replicates, when combined, each drug at the same concentration, read-out: IC50 value of the particular graph

Row | Structure (SMILES) | Inhibition of SARS-CoV-2-induced cytopathic effect, result in words (SARS-CoV-2) | CC50 at 3 days (in vitro; [1]) | further results
1 | CC(=O)N[C@H]1C([C@H](O)[C@H](O)CO)O[C@@](O[C@@H]2C(O)[C@H](O[C@@H]3C(CO)OC(O)C(O)[C@H]3O)OC(CO)[C@@H]2O)(C(=O)[O-])C[C@H]1O.[Na+] (some centres unmarked) [3’ Sialyllactose Na Salt] | not able to reduce viral-induced cytopathic effect | – | –
2 | NC12CC3CC(CC(C3)C1)C2 [Amantadine] | only a partial inhibition at 100 μM | > 100 µM | –
3 | CC(C)CN(C[C@@H](O)[C@H](Cc1ccccc1)NC(=O)O[C@H]1CCOC1)S(=O)(=O)c1ccc(N)cc1 [Amprenavir] | exhibited activity at the non-toxic concentration of 100 µM | – | CC50 at 3 days (in vitro; CC50): > 100 µM
4 | CC[C@H]1OC(=O)[C@H](C)[C@@H](O[C@H]2C[C@@](C)(OC)[C@@H](O)[C@H](C)O2)[C@H](C)[C@@H](O[C@@H]2O[C@H](C)C[C@H](N(C)C)[C@H]2O)[C@](C)(O)C[C@@H](C)CN(C)[C@H](C)[C@@H](O)[C@]1(C)O [Azithromycin] | – | > 100 µM | –
5 | CCS(=O)(=O)N1CC(CC#N)(n2cc(-c3ncnc4[nH]ccc34)cn2)C1 [Baricitinib] | – | – | CC50 (in vitro): > 85 µM
6 | CC(C)(C)NC(=O)N[C@H](C(=O)N1C[C@H]2[C@@H]([C@H]1C(=O)NC(CC1CCC1)C(=O)C(N)=O)C2(C)C)C(C)(C)C (some centres unmarked) [Boceprevir] | – | – | CC50 at 3 days (in vitro; CC50): > 100 µM
7 | CN(C)CCCN1c2ccccc2Sc2ccc(Cl)cc21 [Chlorpromazine] | we did not find any prominent effect | > 18 µM | –
8 | COc1cc2c(c(OC)c1OC)-c1ccc(OC)c(=O)cc1[C@@H](NC(C)=O)CC2 [Colchicine] | – | – | CC50 (in vitro): 0.63 µM
9 | CC(C)CN(C[C@@H](O)[C@H](Cc1ccccc1)NC(=O)O[C@H]1CO[C@H]2OCC[C@H]21)S(=O)(=O)c1ccc(N)cc1 [Darunavir] | – | – | IC50 (Mean +/- SD) (SARS-CoV-2): partially active at 100
10 | O=C(O)c1nn(Cc2ccc(Cl)cc2Cl)c2ccccc12 [Diclondazolic acid (Lonidamine), Diclondazolic acid] | – | – | IC50 (Mean +/- SD) (SARS-CoV-2): Not Active
11 | C[C@H]1c2cccc(O)c2C(=O)C2=C(O)[C@]3(O)C(=O)C(C(N)=O)=C(O)[C@@H](N(C)C)[C@@H]3[C@@H](O)[C@@H]21 [Doxycycline] | – | > 100 µM | –
12 | Nc1nc(=O)n([C@@H]2CS[C@H](CO)O2)cc1F [Emtricitabine] | failed to show any antiviral effect | > 100 µM | IC50 (Mean +/- SD) (SARS-CoV-2; [2]): Not Active
13 | CN(C)[C@@H]1C(O)=C(C(N)=O)C(=O)[C@@]2(O)C(O)=C3C(=O)c4c(O)c(NC(=O)CN5CCCC5)cc(F)c4C[C@H]3C[C@@H]12 [Eravacycline] | – | > 4 µM | –
14 | NC(N)=Nc1nc(CSCCC(N)=NS(N)(=O)=O)cs1 [Famotidine] | – | > 100 µM | IC50 (Mean +/- SD) (SARS-CoV-2; [2]): Not Active
15 | NC(=O)c1nc(F)c[nH]c1=O [Favipiravir] | only partial inhibitory activity at the non-toxic concentration of 100 µM | – | CC50 at 3 days (in vitro; CC50): > 100 µM
16 | OC(Cn1cncn1)(Cn1cncn1)c1ccc(F)cc1F [Fluconazol] | – | > 100 µM | –
17 | CC(C)CN(C[C@@H](OP(=O)(O)O)[C@H](Cc1ccccc1)NC(=O)O[C@H]1CCOC1)S(=O)(=O)c1ccc(N)cc1 [Fosamprenavir Calcium] | – | > 25 µM | –
18 | Nc1ncnc2c([C@@H]3N[C@H](CO)[C@@H](O)[C@H]3O)c[nH]c12 [Galdesivir] | no antiviral effect | – | IC50 (Mean +/- SD) (SARS-CoV-2): Not Active
19 | CCN(CCO)CCCC(C)Nc1ccnc2cc(Cl)ccc12 (centres unmarked) [Hydroxychloroquine] | able to inhibit viral-induced cytopathic effects at concentrations where no cytotoxic effects of the drug were observed | > 80 µM | IC50 (SARS-CoV-2; [3]): 9.3 ± 11.1 µM; IC50 (SARS-CoV-2; [4]): 2.1 µM
20 | CCC(C)n1ncn(-c2ccc(N3CCN(c4ccc(OCC5COC(Cn6cncn6)(c6ccc(Cl)cc6Cl)O5)cc4)CC3)cc2)c1=O (centres unmarked) [Itraconazole] | – | > 100 µM | IC50 (SARS-CoV-2; [3]): 79.4 µM; IC50 (SARS-CoV-2; [4]): 79.4 µM; IC50 (SARS-CoV-2; Vero E6, cytopathic effect 3 days after infection, repeated experiments, read-out: IC50 (Mean +/- SD)): 80 µM
21 | Cc1cccc(C)c1OCC(=O)N[C@@H](Cc1ccccc1)[C@@H](O)C[C@H](Cc1ccccc1)NC(=O)[C@H](C(C)C)N1CCCNC1=O [Lopinavir] | inhibited SARS-CoV-2-induced cytopathic effect at the non-toxic concentration of 20 μM | > 87 µM | –
22 | CC(C)[C@H](NC(=O)OCc1ccccc1)C(=O)N[C@H](C=O)Cc1ccccc1 [MDL 28170] (Cbz-Val-Phe-aldehyde) | activity in the nanomolar range | – | IC50 (SARS-CoV-2; Severe acute respiratory syndrome coronavirus 2, Vero C1008, 72 h, read-out: IC50 (Mean +/- SD)): 0.14 µM; IC50 (SARS-CoV-2; Severe acute respiratory syndrome coronavirus 2, Vero C1008, read-out: IC50 value of the particular graph, Vero E6, one representative experiment with two replicates, when combined, each drug at the same concentration): 0.2 µM; CC50 (in vitro): > 87 µM
23 | OC(c1cc(C(F)(F)F)nc2c(C(F)(F)F)cccc12)C1CCCCN1 (centres unmarked) [Mefloquine hydrochloride] | – | > 100 µM | –

Reference: PMC8033486 (Frontiers in Pharmacology, 2021)
